Where two headings read alike, the source gives them in different places.
Columns and labels:
Experiment in all cases: cell-based
[1] = target: T1, human AR (Homo sapiens, UniProt P10275); conditions: read-out: AR Binding Ki
T1 construct: expressed in transfected cells; host or cells: CV-1 cells (African green monkey kidney fibroblasts)
T1 sequence (P10275 1-920): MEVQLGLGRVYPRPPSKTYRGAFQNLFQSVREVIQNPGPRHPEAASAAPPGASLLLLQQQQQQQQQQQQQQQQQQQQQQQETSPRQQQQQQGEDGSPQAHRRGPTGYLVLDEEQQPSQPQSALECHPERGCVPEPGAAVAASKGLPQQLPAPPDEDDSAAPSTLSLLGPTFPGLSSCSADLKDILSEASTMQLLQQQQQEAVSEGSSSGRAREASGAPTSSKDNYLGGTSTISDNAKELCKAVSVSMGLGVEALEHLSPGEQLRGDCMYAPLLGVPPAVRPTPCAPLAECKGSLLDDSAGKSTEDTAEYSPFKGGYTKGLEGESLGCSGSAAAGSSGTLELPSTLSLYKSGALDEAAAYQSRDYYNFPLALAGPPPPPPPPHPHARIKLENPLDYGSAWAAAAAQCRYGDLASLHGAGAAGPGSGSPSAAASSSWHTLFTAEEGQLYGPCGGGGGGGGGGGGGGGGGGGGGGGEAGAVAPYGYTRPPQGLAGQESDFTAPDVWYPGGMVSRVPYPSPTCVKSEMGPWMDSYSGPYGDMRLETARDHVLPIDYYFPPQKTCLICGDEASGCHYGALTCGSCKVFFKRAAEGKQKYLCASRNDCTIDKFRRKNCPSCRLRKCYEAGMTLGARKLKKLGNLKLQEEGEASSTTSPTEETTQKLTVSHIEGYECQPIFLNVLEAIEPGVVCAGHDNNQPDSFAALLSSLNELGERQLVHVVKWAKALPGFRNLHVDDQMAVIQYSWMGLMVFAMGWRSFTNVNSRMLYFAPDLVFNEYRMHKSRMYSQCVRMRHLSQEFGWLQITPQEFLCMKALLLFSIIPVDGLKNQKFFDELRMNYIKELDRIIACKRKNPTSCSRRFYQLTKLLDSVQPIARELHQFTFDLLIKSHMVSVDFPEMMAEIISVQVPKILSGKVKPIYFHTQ

[2] = target: T1, human AR; format: cell-based; conditions: for AR Antagonist CV-1 Cells Efficacy: antagonist mode, DHT at its EC50, % of maximal inhibition, na = not active; for IC50: read-out: AR Antagonist CV-1 Cells Potency; for EC50: read-out: AR Agonist CV-1 Cells Potency; for AR activity profile (in words): summary of Tables 1 and 2
Text: The co-transfection assay provides a method for identifying functional agonists and partial agonists which mimic, or antagonists which inhibit, the effect of native hormones, and quantifying their activity for responsive IR proteins. In this regard, the co-transfection assay mimics an in vivo system in the laboratory. Importantly, activity in the co-transfection assay correlates very well with known in vivo activity, such that the co-transfection assay functions as a qualitative and quantitative predictor of a tested compounds in vivo pharmacology. See, e.g., T. Berger et al. 41 J. Steroid Biochem. Molec.
CV-1 cells (African green monkey kidney fibroblasts) were cultured in the presence of Dulbecco's Modified Eagle Medium (DMEM) supplemented with 10% charcoal resin-stripped fetal bovine serum then transferred to 96-well microtiter plates one day prior to transfection.
The reporter plasmid, MTV-LUC, contains the cDNA for firefly luciferase (LUC) under control of the mouse mammary tumor virus (MTV) long terminal repeat, a conditional promoter containing an androgen response element. See e.g., Berger et al. supra. In addition, pRS-β-Gal, coding for constitutive expression of E. coli β-galactosidase (β-Gal), was included as an internal control for evaluation of transfection efficiency and compound toxicity.
Three to four replicates were used for each sample.
After 40 hours, the cells were washed with PBS, lysed with a Triton X-100-based buffer and assayed for LUC and β-Gal activities using a luminometer or spectrophotometer, respectively. For each replicate, the normalized response (NR) was calculated as:
where β-Gal rate=β-Gal•1×10^−5/β-Gal incubation time.

[3] = target: T2, PR (Homo sapiens, UniProt P06401)
T2 sequence (P06401 1-933): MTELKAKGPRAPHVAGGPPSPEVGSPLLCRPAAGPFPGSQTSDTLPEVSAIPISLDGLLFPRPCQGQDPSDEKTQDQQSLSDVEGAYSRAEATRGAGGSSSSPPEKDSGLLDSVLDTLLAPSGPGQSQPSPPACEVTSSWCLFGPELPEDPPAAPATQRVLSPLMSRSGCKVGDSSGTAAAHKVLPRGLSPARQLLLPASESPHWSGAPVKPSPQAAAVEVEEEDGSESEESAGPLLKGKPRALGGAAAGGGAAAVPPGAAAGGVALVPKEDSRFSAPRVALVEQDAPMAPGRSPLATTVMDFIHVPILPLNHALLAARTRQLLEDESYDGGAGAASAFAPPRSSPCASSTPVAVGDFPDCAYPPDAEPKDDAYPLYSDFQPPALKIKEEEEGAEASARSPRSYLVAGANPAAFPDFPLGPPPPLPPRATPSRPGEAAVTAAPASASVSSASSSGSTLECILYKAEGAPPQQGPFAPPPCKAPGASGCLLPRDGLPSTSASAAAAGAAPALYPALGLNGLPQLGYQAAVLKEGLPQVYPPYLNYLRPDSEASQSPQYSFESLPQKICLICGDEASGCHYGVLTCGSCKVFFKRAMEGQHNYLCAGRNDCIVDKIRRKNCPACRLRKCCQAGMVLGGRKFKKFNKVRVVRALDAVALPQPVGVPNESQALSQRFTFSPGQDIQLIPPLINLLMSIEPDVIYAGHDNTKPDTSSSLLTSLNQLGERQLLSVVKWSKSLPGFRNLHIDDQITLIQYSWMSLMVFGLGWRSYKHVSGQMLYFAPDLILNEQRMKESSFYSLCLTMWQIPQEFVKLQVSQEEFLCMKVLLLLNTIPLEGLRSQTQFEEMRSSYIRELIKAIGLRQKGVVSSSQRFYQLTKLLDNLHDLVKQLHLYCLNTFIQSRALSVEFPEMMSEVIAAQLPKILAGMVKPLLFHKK

For `CC12CCCN1c1cc3[nH]c(=O)c(F)c(C(F)(F)F)c3cc1CC2` (racemic) [Compound 102, (R/S)-3-Fluoro-6,7,7a,11-tetrahydro-7a-methyl-4-trifluoromethyl-2-pyridono[5,6-g]pyrrolidino[1,2-a]quinoline], the Ki [1] was 11 nM, the “AR Antagonist CV-1 Cells Efficacy” value [2] was 85 ± 1% and the IC50 [2] was 193 ± 19 nM. The IC50 [3] was 398 nM.

With `Cn1c(=O)c(F)c(C(F)(F)F)c2cc3c(cc21)N1CCCC1(C)CC3` (racemic) [Compound 104, (R/S)-3-Fluoro-6,7,7a,11-tetrahydro-1,7a-dimethyl-4-trifluoromethyl-2-pyridono[5,6-g]pyrrolidino[1,2-a]quinoline] the Ki [1] was 93 ± 48 nM, the “AR Antagonist CV-1 Cells Efficacy” value [2] was 85 ± 2% and the IC50 [2] was 40 ± 9 nM. It also gave an IC50 [3] of 800 nM.

`CCC1CCN(C(C)=O)c2cc3[nH]c(=O)cc(C(F)(F)F)c3cc21` (racemic) [Compound 123, (R/S)-1-Acetyl-4-ethyl-1,2,3,4-tetrahydro-6-(trifluoromethyl)-8-pyridono[5,6-g]quinoline] was tested, and the Ki [1] was 87 nM, the “AR Agonist CV-1 Cells Efficacy” value [2] was 91 ± 17% and the EC50 [2] was 31 ± 2 nM.

`CCC1CCN([N+](=O)[O-])c2cc3[nH]c(=O)cc(C(F)(F)F)c3cc21` (racemic) [Compound 127, (R/S)-4-Ethyl-1,2,3,4-tetrahydro-1-nitro-6-(trifluoromethyl)-8-pyridono[5,6-g]quinoline] was tested, and the Ki [1] was 136 nM, the “AR Agonist CV-1 Cells Efficacy” value [2] was 56 ± 12% and the EC50 [2] was 85 ± 36 nM.

`CC1(C)CCc2cc3c(C(F)F)c(F)c(=O)[nH]c3cc2N1` [Compound 106, 6-Difluoromethyl-7-fluoro-1,2,3,4-tetrahydro-2,2-dimethyl-8-pyridono[5,6-g]quinoline] was tested, and the Ki [1] was 73 ± 37 nM, the “AR Antagonist CV-1 Cells Efficacy” value [2] was 78 ± 3% and the IC50 [2] was 52 ± 14 nM.

In the case of `Cn1c(=O)c(F)c(C(F)(F)F)c2cc3c(cc21)NC(C)(C)CC3` [Compound 107, 7-Fluoro-1,2,3,4-tetrahydro-2,2,9-trimethyl-6-trifluoromethyl-8-pyridono[5,6-g]quinoline], the Ki [1] is reported as 110 ± 42 nM, the “AR Antagonist CV-1 Cells Efficacy” value [2] is reported as 83 ± 3% and the IC50 [2] is reported as 38 ± 10 nM.

In the case of `CN1c2cc3c(cc2CCC1(C)C)c(C(F)(F)F)c(F)c(=O)n3C` [Compound 109, 7-Fluoro-1,2,3,4-tetrahydro-1,2,2,9-tetramethyl-6-trifluoromethyl-8-pyridono[5,6-g]quinoline], the Ki [1] is reported as 18 ± 7 nM, the “AR Agonist CV-1 Cells Efficacy” value [2] is reported as 13 ± 8 % and the “AR Antagonist CV-1 Cells Efficacy” value [2] is reported as 77 ± 4%. The EC50 [2] was 36 ± 45 nM, the IC50 [2] was 15 ± 2 nM and the “AR activity profile (in words)” value [2] was “highly selective AR antagonists”.

For `CC1=CC(C)(C)Nc2cc3[nH]c(=O)c(F)c(C(F)(F)F)c3cc21` [Compound 111, 7-Fluoro-1,2-dihydro-2,2,4-trimethyl-6-trifluoromethyl-8-pyridono[5,6-g]quinoline], the Ki [1] was 12 nM, the “AR Agonist CV-1 Cells Efficacy” value [2] was 16 ± 2% and the “AR Antagonist CV-1 Cells Efficacy” value [2] was 53 ± 5%. The EC50 [2] was 227 ± 59 nM, the IC50 [2] was 43 ± 8 nM and the “AR activity profile (in words)” value [2] was “mixed AR agonists/antagonists”.

With `CC1CC(C)(C)Nc2cc3[nH]c(=O)c(F)c(C(F)(F)F)c3cc21` (centres unmarked) [Compound 112, 7-Fluoro-1,2,3,4-tetrahydro-2,2,4-trimethyl-6-trifluoromethyl-8-pyridono[5,6-g]quinoline] the Ki [1] was 61 ± 16 nM, the “AR Agonist CV-1 Cells Efficacy” value [2] was 21 ± 6% and the “AR Antagonist CV-1 Cells Efficacy” value [2] was 42 ± 10%. For the same compound, the EC50 [2] was 26 ± 15 nM, the IC50 [2] was 20 ± 1 nM and the “AR activity profile (in words)” value [2] was “highly selective AR antagonists”.

In the case of `CC1CC(C)(C)n2oc(=O)c3c4[nH]c(=O)cc(C(F)(F)F)c4cc1c32` (centres unmarked) [Compound 113, 1,10-[1,3-dihydro-3-oxo-(2,1-isoxazolyl)]-1,2,3,4-tetrahydro-2,2,4,10-tetramethyl-6-trifluoromethyl-8-pyridono[5,6-g]quinoline], the Ki [1] is reported as 10 nM, the EC50 ([2]; agonist mode, na = not active (efficacy < 10 and potency > 10,000)) is reported as 245 nM and the “AR Agonist CV-1 Cells Efficacy” value ([2]; agonist mode, percent maximal response relative to reference agonist DHT, na = not active (efficacy < 10 and potency > 10,000)) is reported as 31%. The “AR Antagonist CV-1 Cells Efficacy” value [2] was 48% and the “AR activity profile (in words)” value [2] was “mixed AR agonists/antagonists”.

With `Cc1c2c(cc3c(C(F)(F)F)c(F)c(=O)[nH]c13)C(C)CC(C)(C)N2` (centres unmarked) [Compound 115, 7-Fluoro-1,2,3,4-tetrahydro-2,2,4,10-tetramethyl-6-trifluoromethyl-8-pyridono[5,6-g]quinoline] the Ki [1] was 107 nM and the “AR Antagonist CV-1 Cells Efficacy” value [2] was 87 ± 1%.

With `CC1(C)CCc2cc3c(C(F)(F)F)cc(=O)[nH]c3cc2N1O` [Compound 118, 1,2,3,4-Tetrahydro-1-hydroxy-2,2-dimethyl-6-trifluoromethyl-8-pyridono[5,6-g]quinoline] the Ki [1] was 86 ± 29 nM, the “AR Antagonist CV-1 Cells Efficacy” value [2] was 70 ± 2 % and the IC50 [2] was 482 ± 179 nM.

With `Cn1c(=O)cc(C(F)(F)F)c2cc3c(cc21)N(O)C(C)(C)CC3` [Compound 119, 1,2,3,4-Tetrahydro-1-hydroxy-2,2,9-trimethyl-6-trifluoromethyl-8-pyridono[5,6-g]quinoline] the Ki [1] was 74 ± 29 nM, the “AR Antagonist CV-1 Cells Efficacy” value [2] was 40 ± 12% and the IC50 [2] was 1570 ± 1050 nM.

With `CCC1(CC)CCc2cc3c(C(F)(F)F)c(F)c(=O)[nH]c3cc2N1` [Compound 120, 2,2-Diethyl-7-fluoro-1,2,3,4-tetrahydro-6-trifluoromethyl-8-pyridono[5,6-g]quinoline] the Ki [1] was 156 ± 24 nM, the “AR Agonist CV-1 Cells Efficacy” value [2] was 18 ± 3% and the “AR Antagonist CV-1 Cells Efficacy” value [2] was 61 ± 5%. The EC50 [2] was 171 ± 95 nM and the IC50 [2] was 17 ± 2 nM.

— US6534516B1, “Androgen receptor modulator compounds and methods” (Ligand Pharmaceuticals Incorporated, priority 1996, dated 2003)
